Key:
[1] = test system: M. marinum luxCDABE; type: cell-based, Mycobacterium marinum
[2] = test system: M. marinum in A. castellanii; type: cell-based, Mycobacterium marinum
[3] = test system: M. marinum in BV2 microglial cells; type: cell-based, Mycobacterium marinum
[4] = test system: D. discoideum GFP-ABD
[5] = test system: BV2 cells
[6] = test system: Mtb H37Rv in THP-1; set-up: method as in Sorrentino et al, 2015; conditions: ref Sorrentino et al, 2015, cited from earlier work; for Intracelullar MIC90 in THP-1: THP1 / Mtb H37Rv infection assay; for Extracellular MIC90/ Inracellular MIC90: ratio
[7] = test system: Mtb H37Rv; set-up: method as in Sorrentino et al, 2015; conditions: ref Sorrentino et al, 2015; cited from earlier work

Structure (SMILES) | Antibiotic assays: M. marinum luxCDABE [1] | Intracellular infection assays: A. castellanii / M. marinum [2] | Intracellular infection assays: BV2 / M. marinum [3] | Growth inhibition / Cytotoxicity assays: D. discoideum GFP-ABD [4] | Growth inhibition / Cytotoxicity assays: BV2 cells [5] | Intracelullar MIC90 in THP-1 [6] [µM] | Extracellular MIC90/ Inracellular MIC90 [6] | Extracellular MIC90 [7] [µM]
COc1cc(Nc2ccccc2)ccc1NS(=O)(=O)c1c(C)noc1C [GSK270670A] | 1.00 | 1.11 | 1.42 | 0.94 | False | 50 | 0.12 | 6.1
CN1CCN(c2cc(-c3ccc(F)cc3)nc(-c3ccncc3)n2)CC1 [GSK276001A] | 0.63 | 1.04 | 1.11 | 0.65 | False | 50 | 0.15 | 7.4
COc1ccc2nc(C)cc(OCC(=O)Nc3ccccc3OC)c2c1 [GSK358607A] | 0.00 | 0.55 | 0.98 | 0.39 | False | 1.85 | 0.22 | 0.4
COc1ccc2nc(C)cc(OCC(=O)NCc3ccccc3)c2c1 [GSK463114A] | 0.00 | 1.10 | 1.37 | 0.95 | False | 5.55 | 0.2 | 1.1
Cc1nn(Cc2ccccc2)c(Cl)c1C(=O)NC1CCCCCC1 [GSK636544A] | 0.00 | 1.07 | 1.35 | 0.93 | False | 1.85 | 2.81 | 5.2
Fc1ccc2nc(Nc3nc(-c4ccccn4)cs3)sc2c1 [GSK735816A] | 0.00 | 1.17 | 1.37 | 0.37 | False | 1.85 | 1.24 | 2.3
c1ccc(-c2csc(Nc3nc4cc5c(cc4s3)OCO5)n2)nc1 [GSK735826A] | 0.00 | 0.98 | 1.47 | 0.86 | False | 1.85 | 1.46 | 2.7
FC(F)(F)c1cc(SCc2ccccc2)nc(-c2ccccn2)n1 [GSK847913A] | 0.00 | 0.90 | 1.39 | 0.94 | False | 1.85 | 1.78 | 3.3
CCc1nc2ccccc2n1CC(O)COc1cc(C)ccc1Cl (stereo not shown) [GSK889423A] | 0.00 | 1.18 | 1.41 | 0.94 | False | 5.55 | 1.58 | 8.8
O=C(CCSc1ccc(Cl)cc1)Nc1nc(-c2ccccn2)cs1 [GSK920703A] | 0.13 | 1.34 | 1.24 | 0.48 | False | 5.55 | 1.51 | 8.4
O=C(CCC1CCCCC1)Nc1cccc(-c2nnc(-c3ccco3)o2)c1 [GSK937213A] | 0.00 | 1.06 | 1.14 | 1.19 | False | 0.61 | 10 | 6.1
Cc1ccc(C2CC(C(F)(F)F)n3ncc(C(=O)NCc4ccc5c(c4)OCO5)c3N2)cc1 (stereo not shown) [GSK937733A] | 1.00 | 1.38 | 1.64 | 0.94 | False | 0.61 | 8.85 | 5.4
Cc1ccc(CNC(=O)c2cnn3c2NC(c2ccc(C)cc2)CC3C(F)F)cc1 (stereo not shown) [GSK1180781A] | 1.00 | 1.14 | 1.23 | 1.05 | False | 0.21 | 5.71 | 1.2
c1ccc(CCNc2cc(-c3ccccc3)nc3nncn23)cc1 [GSK1402290A] | 0.14 | 1.08 | 1.11 | 0.84 | False | 5.55 | 0.99 | 5.5
Fc1ccccc1-c1noc(N2CCN(Cc3ccc4c(c3)OCO4)CC2)n1 [GSK1434490A] | 0.68 | 1.24 | 1.16 | 0.93 | False | 5.55 | 0.94 | 5.2
CCc1ccc(C2CC(C(F)(F)F)n3ncc(C(=O)NCc4cccs4)c3N2)cc1 (stereo not shown) [GSK1589671A] | 0.16 | 1.63 | 1.74 | 0.99 | False | 0.21 | 20.95 | 4.4
CCc1ccc(C2CC(C(F)(F)F)n3ncc(C(=O)NCc4ccc(OC)cc4)c3N2)cc1 (stereo not shown) [GSK1589673A] | 1.00 | 1.34 | 1.29 | 1.16 | False | 0.61 | 8.03 | 4.9

From PMC5834492, “Antimycobacterial drug discovery using Mycobacteria-infected amoebae identifies anti-infectives and new molecular targets” (Scientific Reports, 2018)
